A melting point compilation (Tetko et al.; mined from patent text by program, amines drawn as free bases though some values may be those of a salt)

Row | melting point | Compound
1 | 190 to 195 °C | CC(C)(C)OC(=O)Nc1ccc(NC(=O)CCCCC2CCSS2)cc1 (centres undefined)
2 | 133 to 134 °C | CCCCCC(=O)OCc1cc(O)ncn1
3 | 94 to 95 °C | C=CCn1c(=Nc2ccccc2)sc2ncccc2c1=O
4 | 135 to 137 °C | CCCCOc1ccc2cc(C(C)NC(N)=O)ccc2c1 (centres undefined)
5 | 195 to 196 °C | CCc1cc2cc(O)ccc2c(Oc2ccc(/C=C/C(=O)N3CCN(C)CC3)cc2)c1-c1ccccc1
6 | 107 to 109 °C | Cc1cccc2nc(C)n(-c3ccccc3)c12
7 | 156 to 158 °C | COc1cc2c(c3c1OC(C)(C)C3)C(c1ccccc1)=NC(CO)C2 (centres undefined)
8 | 127 to 129 °C | CC(Cc1cc(F)cc2c(Cl)coc12)NC(=O)OC(C)(C)C (centres undefined)
9 | 168 to 169 °C | CC1(C(=O)O)c2ccccc2-c2ccccc21
10 | 235 °C | NC(N)=Nc1nc(N2CCOCC2)nc2c1ccc1ccccc12
11 | 60 to 61 °C | CCOC(=O)Cc1nc(-c2ccc(F)cc2)oc1CC(C)C
12 | 283 to 286 °C | O=C(O)C1Cc2c(ccc3c(=O)c4c(Cl)cccc4oc23)O1 (centres undefined)
13 | 211 to 212 °C | CC(C)[C@H](NC(=O)OCc1ccccc1)C(=O)NCCCNC(=O)[C@@H](NC(=O)OCc1ccccc1)C(C)C
14 | 156 to 157 °C | CCc1c(Sc2cc(C)cc(C)c2)n(CC2=CC(CO)C(CO)C2)c(=O)[nH]c1=O (centres undefined)
15 | 128 to 130 °C | N[C@H](Cc1cccc(OC(F)(F)C(F)F)c1)[C@@H](O)c1csc(-c2ccccc2)n1 (racemic)
16 | 142 to 144 °C | CCOC(=O)NC1Cc2ccccc2C1Nc1ccc(OC)cc1CO (centres undefined)
17 | 96 to 99 °C | CN(C)C(=O)C1(n2ccc(-c3ccccc3)n2)CC1
18 | 178 to 182 °C | O=C(O)c1ccc(Cc2ccc([N+](=O)[O-])cc2)cn1
19 | 161 to 163 °C | COc1ccc(C2=Cc3ccc(O)cc3OC2)cc1
20 | 100 °C | CCOC(=O)[C@@](CC)(CCCNCCc1c[nH]c2ccc(F)cc12)C(OCC)OCC
21 | 153 to 155 °C | CCCN(CCC)CC1CCCCN1CCNC(=O)N1c2ccccc2NC(=O)c2c1ccn2C (centres undefined)

Row | melting point | Compound
22 | 205 °C | Cc1cc(C=O)c(OCCCCOc2c(C=O)cc(C)cc2C=O)c(C=O)c1
23 | 94 to 96 °C | Cn1c(C(F)(F)F)cc(=O)n(-c2cc(OC(=O)CCC(=O)OCCCl)c(Cl)cc2F)c1=O
24 | 138 °C | O=c1c2ccccc2c(-c2ccccc2)cn1CCCCl
25 | 95 to 98 °C | c1ccc(COc2ccc([C@H]3CC[C@@H](NCCOc4ccccc4)CC3)cc2)cc1
26 | 229 to 230 °C | COC(=O)c1ccc(Cc2cccc3ccc(C(=O)O)cc23)c(OC)c1
27 | 44 to 46 °C | COc1ccc(SC2=C(C(=O)NO)CCC2=CCCc2ccccc2)cc1OC
28 | 172 to 174 °C | CCCc1nc2c(N)nc(C)c(C)c2n1CCCCCS(=O)(=O)c1ccc(C(F)(F)F)cc1
29 | 194 to 195 °C | Cc1ncccc1OCC1(c2onc(-c3ccc(O)cc3)c2-c2ccccc2)CC1
30 | 138 to 139 °C | CC(C)(C)COC(=O)Cc1cccc2c(=O)cc(C3=CCCCC3)oc12
31 | 150 to 151 °C | COC(=O)/C(=C/C=C/c1cc2cc(OC)ccc2[nH]1)OC
32 | 86 to 87 °C | COC(=O)[C@H](CC(C)C)NC(=O)OCC1c2ccccc2-c2ccccc21
33 | 115 to 125 °C | CCOC(=O)CNC(=O)Nc1ccc(S(=O)(=O)Nc2onc(C)c2C)cc1
34 | > 300 °C | Nc1cc(Cl)cc(Nc2ncnc3[nH]cc(C(=O)c4ccccc4)c23)c1
35 | 174 to 176 °C | CC1(C)CC(c2ccc[nH]c2=O)c2cc(C#N)ccc2O1 (centres undefined)
36 | 238 to 239 °C | COc1cc2c(cc1OC)[C@@H](c1ccc([N+](=O)[O-])cc1)NN(C1=NC(=O)CS1)[C@@H](C)C2
37 | 137 to 138 °C | COc1cc(Br)c(C(C)=NOCc2ccc([N+](=O)[O-])cc2)cc1O
38 | 216 °C | CCOC(=O)C1=CC(C(=O)c2cc(Cl)ccc2O)=CN2CCc3c([nH]c4ccccc34)C12C(=O)OCC (centres undefined)
39 | 212 to 214 °C | Cc1[nH]c(=S)n(Nc2ccc(Cl)cc2)c1-c1ccccc1
40 | 139 to 140 °C | CN(C)C(=O)Cc1csc(NC(=O)C(Cc2ccccc2)NC(=O)OC(C)(C)C)n1 (centres undefined)
41 | 84 to 86 °C | CN(C)CCOc1ccc(O)c(C=NCCN=Cc2cc(OCCN(C)C)ccc2O)c1

Second part, the compound before the results:

Row | Compound | melting point
42 | CCOC(=O)C1=CNC2=C(C(=O)OCC)CCC(C)N2C1=O (centres undefined) | 138 to 140 °C
43 | CS(=O)(=O)c1ccc(C(CC2CCCC2)C(=O)Nc2ncc[nH]2)cc1[N+](=O)[O-] (centres undefined) | 243 to 244 °C
44 | Nc1sccc1C(=O)c1cccc(C(F)(F)F)c1 | 143 to 145 °C
45 | N[C@@H](C/C(=C\C1CC1)C(=O)O)C(=O)O | 204 °C
46 | O=C(O)c1ccc([N+](=O)[O-])cn1 | 210 to 211 °C
47 | CN1Cc2cc(Br)cnc2N(C)C1=O | 119 to 120 °C
48 | Cc1nc2ncnn2c2c1CCN2Cc1ccccc1 | 170 to 172 °C
49 | CCN1N=C(c2ccc3c(c2)CCC(=O)N3C)C(C)CC1=O (centres undefined) | 170 to 172 °C
50 | CCNc1cccc2c(S(=O)(=O)Nc3ccc(Cl)nn3)cccc12 | 166 to 168 °C
51 | N=c1ncccn1CCc1ccccc1Br | 97 to 98 °C
52 | COCCn1cc(C(=O)O)c2c(Cl)cccc21 | 142 to 145 °C
53 | COc1ccc(CCNC(=O)C2CCCCC2)cc1OC | 110 to 111 °C
54 | Cc1cc2c(CN3CCC(C)CC3)c(CO)c(Cl)nc2cc1Cl | 170 to 172 °C
55 | CC(=O)OC1(C(C)=O)C(C)CC2C3CC(C)C4=CC(=O)C=CC4(C)C3(Br)C(O)CC21C (centres undefined) | 184 to 185 °C
56 | O=C(O)c1cn(C2CC2)c2c(F)c(N3CC(O)C3)c(F)cc2c1=O | 286 to 288 °C
57 | Cc1nn(C)c2c(O)nc(C3CC3)nc12 | 238 to 240 °C
58 | [N-]=[N+]=NC(=O)c1csc(Cl)n1 | > 250 °C

Row | Compound | melting point
59 | O=[PH](O)Cc1ccc(P(c2ccccc2)c2ccccc2)cc1 | 40 °C
60 | Cc1ccc(N)cc1S(=O)(=O)Nc1onc(C)c1C | 204 to 205 °C
61 | Cc1c(C(=O)O)ccc(Cl)c1O | 191 °C
62 | O=C1CC(Cc2cccc(Cl)c2)CN1 (centres undefined) | 117 to 119 °C
63 | N#Cc1nn(-c2c(Cl)cc(C(F)(F)F)cc2Cl)cc1-c1occc1Br | 99 to 101 °C
64 | CC(=NO)c1ccc2c(c1)CCC2 | 104 °C
65 | O=c1c2cccc3ncc(c(=O)n1CCCCNS(=O)(=O)C(F)(F)F)n32 | 206 to 207 °C
66 | COc1cc2c(c(Cl)c1Cl)CCCC2 | 67 to 68.5 °C
67 | C[C@@H](O[Si](C)(C)C(C)(C)C)[C@@H]1C(=O)N[C@@H]1S(C)(=O)=O | 101 to 102 °C
68 | COOC(=O)c1cc2c(Cl)cn(C)c2nc1C(=O)OOC | 129 to 137 °C
69 | CS(=O)(=O)Nc1ccc2[nH]ccc2c1 | 133 to 135 °C
70 | COC(=O)N1Cc2ccccc2C(c2ccccc2Cl)c2ccccc21 (centres undefined) | 159 to 161 °C
71 | COC(=O)N1CCN(c2ccn3nc(-c4ccccc4)c(-c4ccc(=O)n(C(C)C)n4)c3c2)CC1 | 206 to 207 °C
72 | O=C1c2ccccc2C(=O)N1CCOCCl | 69 to 72 °C
73 | CC(=O)Nc1ccc(S(=O)(=O)NCC2CCN(C[C@H]3COc4ccc5[nH]ccc5c4O3)CC2)cc1 | 133 to 134 °C
74 | O=C1[C@H]2CCC[C@H]2N(C(=O)CN2CCN(c3ccccc3)CC2)c2ccccc2N1Cc1ccccc1 (relative stereo) | 164 to 165 °C
